“Also recorded” adds a separate entry of the source. Like-named read-outs stand apart in the source and are kept apart here.
Assays:
[1] = tested on: MCF-7 breast cancer cells; test: mammosphere formation assay (CSC propagation) in MCF-7 cells; format: cell-based, human; details: for IC50: Homo sapiens, MCF7
Description: (§1) The mammosphere assay was performed as follows. A single cell suspension of MCF-7 or MDA-MB-231 cells was prepared using enzymatic (1× Trypsin-EDTA, Sigma Aldrich), and manual disaggregation (25 gauge needle). Cells were then plated at a density of 500 cells/cm^2 in mammosphere medium (DMEM-F12/B27/20-ng/ml EGF/PenStrep) in nonadherent conditions, in culture dishes coated with (2-hydroxyethylmethacrylate) (poly-HEMA, Sigma Aldrich), in the presence of treatments, were required. Cells were grown for 5 days and maintained in a humidified incubator at 37° C. at an atmospheric pressure in 5% (v/v) carbon dioxide/air. After 5 days for culture, spheres >50 μm were counted using an eye piece graticule, and the percentage of cells plated which formed spheres was calculated and is referred to as percentage mammosphere formation. Mammosphere assays were performed in triplicate and repeated three times independently.

[2] = tested on: MDA-MB-231 triple negative breast cancer cells; test: mammosphere formation assay (CSC propagation) in MDA-MB-231 cells; format: cell-based, human
Description: as §1

[3] = tested on: chicken embryos; test: CAM assay, embryonic tolerability; format: in vivo
Description: (§2) Further evaluation of both efficacy and toxicity was performed on human breast tumors initiated from the MDA-MB-231 cell line in chicken embryos using the CAM Model available from Inovotion (La Tronche, France). […] With respect to the CAM assay, fertilized eggs were incubated at 37.5° C. with 50% relative humidity for 9 days. The graft was dropped into each egg through a small hole drilled through the eggshell into the air sac, and a 1 cm^2 window cut in the eggshell above the CAM. This grafting process was used for each egg in a test group. Because the grafting process is an invasive surgical act, some death is expected to occur during hours after the tumor graft. For the data reported herein, at least 10 eggs per test group were successfully grafted.
Embryonic tolerability of the d-TPP treatments were also quantitatively evaluated. Embryonic viability was checked daily following grating and during treatment. The number of dead embryos was also counted on the final day, to evaluate treatment-induced embryo toxicity. […] It should be appreciated by those having an ordinary level of skill in the art that toxicity should be analyzed for establishing a dosing regimen.

[4] = tested on: MCF-7 cells; test: Seahorse XFe96 metabolic flux analysis, oxygen consumption rate (OCR); format: cell-based, human
Description: (§3) The extracellular acidification rate (ECAR) and real-time oxygen consumption rate (OCR) assays for metabolic flux analysis were performed using the Seahorse Extracellular Flux (XFe-96) analyzer (Seahorse Bioscience). Briefly, 15,000 MCF-7 cells per well were seeded into XFe-96 well cell culture plates, and incubated overnight to allow attachment. Cells were then treated with increasing concentrations of d-TPP (50 nM+500 nM) for 24 hours. Vehicle alone (DMSO) control cells were processed in parallel. Then, cells were washed in pre-warmed XF assay media (or for OCR measurement, XF assay media supplemented with 10 mM glucose, 1 mM Pyruvate, 2 mM L-glutamine and adjusted at 7.4 pH). Cells were then maintained in 175 μL/well of XF assay media at 37 C, in a non-CO2 incubator for 1 hour. During the incubation time, 5 μL of 80 mM glucose, 9 μM oligomycin, and 1 M 2-deoxyglucose (for ECAR measurement) or 10 μM oligomycin, 9 μM FCCP, 10 μM Rotenone, 10 μM antimycin A (for OCR measurement), were loaded in XF assay media into the injection ports in the XFe-96 sensor cartridge. Data set was analyzed by XFe-96 software after the measurements were normalized by protein content (SRB). All experiments were performed three times independently.

[5] = tested on: MCF-7 cells; test: Seahorse XFe96 metabolic flux analysis, extracellular acidification rate (ECAR); format: cell-based, human; details: MCF-7, d-TPP 50 nM to 500 nM
Description: as §3

[6] = tested on: human breast tumors initiated from the MDA-MB-231 cell line; test: CAM assay, tumor growth and metastasis; format: in vivo, chicken embryos
Description: as §2
The MDA-MB-231 tumor cell line was cultivated in DMEM medium supplemented with 10% FBS and 1% penicillin/streptomycin. After the 9-day incubation period, cells were detached with trypsin, washed with complete medium, and suspended in a graft medium. An inoculum of 1.10^6 cells was added onto the CAM of each egg, and then eggs were randomized into test groups. Tumors were detectable within one day of the graft. The negative control group was a 0.125% DMSO in PBS, and d-TPP groups for concentrations of 6.25 μM, […], were evaluated. Each egg in a group was treated 8 times per day. After 8 days of treatments, tumor growth was quantitatively evaluated. The upper portion of the CAM (with the tumor) was removed, washed in a PBS buffer, and then directly transferred in PFA for a 48-hour fixation. Tumors were then carefully cut away from normal CAM tissue and weighed. For all quantitative data relating to the chicken egg evaluation, a one-way ANOVA (with post-tests between each couple of groups) was performed with the specialized computer software Prism® (GraphPad Software). For all analyses, statistical difference between groups is made visible on graphs by the presence of stars with the following meaning: no asterisk means p>0.05; * means […]; ** means 0.01≥p>0.001; and *** means 0.001≥p. […] Consistent with the evaluations described above, the d-TPP tumor growth inhibition effect was dose-dependent.
Metastatic invasion was also quantitatively evaluated. A 1 cm^2 portion of the lower CAM was collected to evaluate the number of metastatic cells in 8 samples per group (n=8). Genomic DNA was extracted from the CAM using a commercial kit, and analyzed by qPCR with specific primers for Human Alu sequences. Calculation of Cq for each sample, mean Cq and relative amounts of metastases for each group were directly managed by the Bio-Rad® CFX Maestro software. […]

[7] = tested on: normal human fibroblasts (hTERT-BJ1); test: cell viability by sulphorhodamine (SRB) assay in normal fibroblasts; format: cell-based
Description: (§4) Cell viability was assessed in MCF-7 and hTERT-BJ1 cells by sulphorhodamine (SRB) assay, based on the measurement of cellular protein content. After treatment with d-TPP (50 nM+1 μM) for 24, 48 or 72 hours, cells were fixed with 10% trichloroacetic acid (TCA) for 1 hour in cold room, and dried overnight at room temperature. Then, cells were incubated with SRB for 15 min, washed twice with 1% acetic acid, and air dried for at least 1 hour. Finally, the protein-bound dye was dissolved in 10 mM Tris pH 8.8 solution and read using a plate reader at 540 nm.

[8] = tested on: adherent MCF-7 cells; test: xCELLigence real-time cell analysis of cell proliferation; format: cell-based, human
Description: The xCELLigence system was used to analyze the kinetics of d-TPP action on cell proliferation of adherent MCF-7 cells. The xCELLigence system evaluates the real-time, label-free monitoring of cell health and behavior, by measuring the electrical impedance, whose magnitude is dependent on the number of cells. Real-time cell analysis was performed for 48-hour and 72-hour treatment with d-TPP, at concentrations of 50 nM, 100 nM, and 250 nM. The control was vehicle-only. The results for the 48-hour d-TPP treatment are shown in FIGS. 8A and 8B, and FIGS. 8C and 8D show results for the 72-hour d-TPP treatment.
The xCELLigence Real-time cell analysis (RTCA) System was sourced from ACEA Biosciences Inc. The xCELLigence RTCA system provides a useful approach for the real-time monitoring of the biological status of adherent cells, by measuring the electrical impedance, expressed as a cell index (CI) value. 5000 MCF-7 cells were seeded in a 16-well plate (E-plate). 24 hours after seeding, cells were treated with vehicle or increasing concentrations of d-TPP (from 50 nM to 250 nM) for additional 48 hours or 72 hours. RTCA was performed by measuring the cell-induced electrical impedance values, which were automatically recorded every 15 min for 96 h. This approach allows the quantification of the onset and kinetics of the cellular response. Experiments were repeated three times independently, using quadruplicate samples for each condition.

[9] = tested on: MCF-7 breast cancer cells; test: cell viability by sulphorhodamine (SRB) assay in MCF-7 cells; format: cell-based; details: Homo sapiens, MCF7, 250 nM, 500 nM and 1 μM, read-out: reduction in cell viability
Description: as §4

[10] = tested on: MCF-7 breast cancer cells; details: b-TPP, identified in International Application PCT/US2018/062174; read-out: IC-50 inhibiting CSC propagation; cited from earlier work
[11] = Berberine chloride 10 μM with d-TPP 100 nM

## O=CC[C@@H](O)[C@H](O)[C@H](O)CO [2-DG, 2-deoxy-D-glucose]
[1]; 2-DG 10 mM with d-TPP 100 nM
  increase in the inhibitory effect of d-TPP alone: 2 fold
[1]; 2-DG 20 mM with d-TPP 100 nM
  residual mammosphere formation capability: < 10%

## O=C(Nc1ccc([N+](=O)[O-])cc1Cl)c1cc(Cl)ccc1O [Niclosamide]
[1]; Niclosamide 250 nM with d-TPP 100 nM
  increase in efficacy of d-TPP on CSC activity: ~2 fold
[1]; Niclosamide 500 nM with d-TPP 100 nM
  increase in efficacy of d-TPP on CSC activity: ~3 fold

## O=C1O[C@H]([C@@H](O)CO)C(O)=C1O [Vitamin C, Ascorbic Acid]
[1]; Vitamin C separately (without d-TPP), read-out: IC-50 MCF-7 CSC propagation
  IC50: 1000 µM
[1]; Vitamin C 250 μM in combination with d-TPP at 100 nM
  inhibition of propagation of CSCs: over 50%
[1]; Vitamin C 500 μM in combination with d-TPP at 100 nM
  inhibition of propagation of CSCs: over 70%
[1]; d-TPP 100 nM
  increase in CSC sensitivity to Vitamin C caused by d-TPP: ~4 fold

## COc1ccc2cc3[n+](cc2c1OC)CCc1cc2c(cc1-3)OCO2 [Berberine chloride]
[1]; Berberine chloride 1 μM with d-TPP 100 nM
  reduction (CSC formation): 60%
[1]; [11]
  increase in efficacy of d-TPP: ~5 fold
  inhibition of CSC formation: over 80%

## CCCCCCCCCCC[P+](c1ccccc1)(c1ccccc1)c1ccccc1 [d-TPP, dodecyl-TPP]
[1]; MCF-7, read-out: concentration necessary to half CSC activity
  IC50: ~0.25 µM
[1]; MCF-7
  potency in inhibiting mammosphere formation / CSC propagation compared with b-TPP (other TPP-derivatives): twice as potent; also recorded: more than twice as potent
[1]; MCF-7, d-TPP 50 nM and 100 nM
  reduction in mammosphere formation: 20%
[1]; MCF-7, d-TPP 500 nM and 1 μM
  reduction in CSC propagation (mammosphere formation): 80%
[2]; Homo sapiens, MDA-MB-231, d-TPP 1 μM
  inhibition at 1 µM: ~80%
[2]; MDA-MB-231, d-TPP 50 nM (lowest concentration tested)
  effect on CSC propagation (mammosphere formation): showed an inhibitory effect
[3]; higher dose
  embryo toxicity: resulted in mortality
[3]; medium and low doses
  embryo toxicity: did not exhibit toxicity
[4]; Homo sapiens, MCF7, MCF-7, 24 hours treatment, read-out: IC-50 basal mitochondrial respiration
  IC50: ~0.25 µM
[4]; MCF-7, d-TPP 50 nM
  oxygen consumption rate (OCR): dramatic reduction
[4]; MCF-7, d-TPP 50 nM to 500 nM
  ATP levels: dose-dependently depleted
[5]
  glycolysis (ECAR): substantially and dose-dependently increased
[6]; 25 μM concentration
  inhibition of metastasis: ~75%
[6]; 25 sM concentration
  inhibition of tumor growth: ~40%
[6]; medium (25.0 μM) and high (62.5 μM) doses
  tumor growth (tumor weight) compared to the negative control: significantly inhibited
[6]; medium dose
  metastatic invasion (qPCR for Alu sequences in the lower CAM) compared to the negative control: metastasis regression
[7]; 50 nM and 100 nM
  toxicity to hTERT-BJ1 cells: no toxicity
[7]; 250 nM, 500 nM and 1 μM
  cell viability of hTERT-BJ1 cells: decreased
[8]; MCF-7, 50 nM d-TPP, 72 h treatment
  effect on cell number (cell index): trend of reduced cell number
[8]; MCF-7, 100 nM d-TPP
  effect on cell proliferation (cell index): main cytostatic effect
[8]; MCF-7, 250 nM d-TPP
  cytotoxicity (cell index): Cytotoxicity was present
[9]; MCF-7, 24 hours
  cytotoxicity at 0.25 µM: ~30%
[9]; MCF-7, 72 hours
  cytotoxicity at 0.25 µM: ~80%

## C(=CC[P+](c1ccccc1)(c1ccccc1)c1ccccc1)C[P+](c1ccccc1)(c1ccccc1)c1ccccc1 [b-TPP, 2-butene-1,4-bis-TPP]
[10]
  IC50: ~0.5 µM
